Laboratory results from patent US8580811B2 (Ligand Pharmaceuticals Incorporated, priority 2005, dated 2013).

biological target: T1, human AR (Homo sapiens, UniProt P10275); assay: IR Binding Assay: whole cell competitive binding of test compounds against 3H-DHT in COS-1 cells transfected with pRShAR
T1 construct: expressed in transfected cells; host or cells: COS-1 cells
T1 sequence (P10275 1-920): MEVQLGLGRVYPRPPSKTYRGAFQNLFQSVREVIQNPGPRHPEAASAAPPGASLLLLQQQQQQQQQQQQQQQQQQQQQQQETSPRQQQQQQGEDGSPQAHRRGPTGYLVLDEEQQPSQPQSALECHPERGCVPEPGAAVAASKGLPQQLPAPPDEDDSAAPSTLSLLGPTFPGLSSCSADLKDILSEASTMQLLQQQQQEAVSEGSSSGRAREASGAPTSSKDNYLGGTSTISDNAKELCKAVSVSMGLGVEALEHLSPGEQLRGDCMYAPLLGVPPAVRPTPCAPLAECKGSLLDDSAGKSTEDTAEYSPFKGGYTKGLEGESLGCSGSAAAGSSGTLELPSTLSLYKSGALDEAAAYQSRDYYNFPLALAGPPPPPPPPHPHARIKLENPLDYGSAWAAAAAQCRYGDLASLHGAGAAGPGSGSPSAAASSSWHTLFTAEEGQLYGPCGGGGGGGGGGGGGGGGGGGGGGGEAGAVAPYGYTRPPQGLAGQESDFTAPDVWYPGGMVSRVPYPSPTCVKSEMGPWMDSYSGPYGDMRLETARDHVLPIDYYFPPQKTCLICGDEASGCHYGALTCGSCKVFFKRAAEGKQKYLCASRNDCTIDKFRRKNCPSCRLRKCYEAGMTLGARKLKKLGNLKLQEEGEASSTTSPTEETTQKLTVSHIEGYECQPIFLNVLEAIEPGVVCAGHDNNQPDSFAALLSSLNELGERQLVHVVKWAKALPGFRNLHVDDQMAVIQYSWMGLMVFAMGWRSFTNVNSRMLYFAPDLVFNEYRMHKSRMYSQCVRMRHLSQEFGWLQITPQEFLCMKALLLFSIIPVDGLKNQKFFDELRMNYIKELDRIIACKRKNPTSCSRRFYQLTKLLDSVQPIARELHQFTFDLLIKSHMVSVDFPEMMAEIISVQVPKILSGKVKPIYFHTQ
Summary of the method: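 COS-1 cells transfected with pRShAR plus β-Gal reporter, serum-starved 24 h, then exposed to 1 nM ³H-DHT with compounds at 10^−10 to 10^−6 M for 3 h at 37 °C. Bound ³H-DHT counted in lysates, normalized to β-Gal. IC50 from log-logit plot; Ki via Cheng-Prusoff using Kd from Scatchard saturation analysis.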

SMILES | Ki
Cc1ccc(-c2c(C)c3c4c(Cl)cc(=O)[nH]c4ccc3n2CC(F)(F)C(F)(F)F)s1 [Compound 268, 9-Chloro-1-methyl-2-(5-methylthiophen-2-yl)-3-(2,2,3,3,3-pentafluoropropyl)-3,6-dihydro-pyrrolo[3,2-f]quinolin-7-one] | < 5 nM
CC(=O)OCCCn1c(C)c(C)c2c3c(C(F)(F)F)cc(=O)[nH]c3ccc21 [Compound 250, 3-(3-Acetoxypropyl)-1,2-dimethyl-9-trifluoromethyl-3,6-dihydro-pyrrolo[3,2-f]quinolin-7-one] | < 5 nM
Cc1c(-c2ccccc2)n(C[C@H](O)C(F)(F)F)c2ccc3[nH]c(=O)cc(Cl)c3c12 [Compound 271, (S)-9-Chloro-1-methyl-2-phenyl-3-(3,3,3-trifluoro-2-hydroxy-propyl)-3,6-dihydro-pyrrolo[3,2-f]quinolin-7-one] | < 5 nM
CCc1[nH]c2ccc3[nH]c(=O)cc(Cl)c3c2c1C [Compound 106, 9-Chloro-2-ethyl-1-methyl-3,6-dihydro-pyrrolo[3,2-f]quinolin-7-one] | 5 to 10 nM
CCc1c(C)c2c3c(Cl)cc(=O)[nH]c3ccc2n1CCC(F)(F)F [Compound 216, 9-Chloro-2-ethyl-1-methyl-3-(3,3,3-trifluoropropyl)-3,6-dihydro-pyrrolo[3,2-f]quinolin-7-one] | < 5 nM
Cc1c(-c2cccnc2)n(CC(F)(F)F)c2ccc3[nH]c(=O)cc(Cl)c3c12 [Compound 253, 9-Chloro-1-methyl-2-(3-pyridyl)-3-(2,2,2-trifluoroethyl)-3,6-dihydro-pyrrolo[3,2-f]-quinolin-7-one] | > 10 nM
Cc1c(-c2cccc(F)c2)n(CC(F)(F)F)c2ccc3[nH]c(=O)cc(Cl)c3c12 [Compound 251, 9-Chloro-2-(3-fluorophenyl)-1-methyl-3-(2,2,2-trifluoroethyl)-3,6-dihydro-pyrrolo[3,2-f]-quinolin-7-one] | < 5 nM
CC1c2c(ccc3[nH]c(=O)cc(Cl)c23)N(CC(F)(F)F)C1c1ccc(Cl)cc1 (racemic) [Compound 152, (±)-9-Chloro-2-(4-chlorophenyl)-1-methyl-3-(2,2,2-trifluoroethyl)-1,2,3,6-tetrahydro-pyrrolo[3,2-f]quinolin-7-one] | > 10 nM
Cc1c(C)n(C[C@H](O)CO)c2ccc3[nH]c(=O)cc(C(F)(F)F)c3c12 [Compound 295, (S)-3-(2,3-dihydroxypropyl)-1,2-dimethyl-9-trifluoromethyl-3,6-dihydro-pyrrolo[3,2-f]-quinolin-7-one] | > 10 nM
CCN1c2ccc3[nH]c(=O)cc(Cl)c3c2C(C)C1C (racemic) [Compound 135, (±)-9-Chloro-1,2-dimethyl-3-ethyl-1,2,3,6-tetrahydro-pyrrolo[3,2-f]quinolin-7-one] | 5 to 10 nM
CC1c2c(ccc3[nH]c(=O)cc(Cl)c23)N(CCC(F)(F)F)C1c1ccccc1 (racemic) [Compound 169, (±)-9-Chloro-1-methyl-2-phenyl-3-(3,3,3-trifluoropropyl)-1,2,3,6-tetrahydro-pyrrolo[3,2-f]quinolin-7-one] | < 5 nM
CCc1c(C)c2c3c(Cl)cc(=O)[nH]c3ccc2n1CC(F)(F)Cl [Compound 222, 9-Chloro-3-(2-chloro-2,2-difluoroethyl)-2-ethyl-1-methyl-3,6-dihydro-pyrrolo[3,2-f]-quinolin-7-one] | < 5 nM
CC1c2c(ccc3[nH]c(=O)cc(Cl)c23)N(CC(F)(F)F)C1c1ccc(Cl)c(Cl)c1 (racemic) [Compound 157, (±)-9-Chloro-2-(3,4-dichlorophenyl)-1-methyl-3-(2,2,2-trifluoroethyl)-1,2,3,6-tetrahydropyrrolo[3,2-f]quinolin-7-one] | < 5 nM
Cc1ccc(-c2c(C)c3c4c(Cl)cc(=O)[nH]c4ccc3n2CC(F)(F)C(F)(F)F)o1 [Compound 267, 9-Chloro-1-methyl-2-(5-methylfuran-2-yl)-3-(2,2,3,3,3-pentafluoropropyl)-3,6-dihydro-pyrrolo[3,2-f]quinolin-7-one] | 5 to 10 nM
